Test results published in the supplement of paper PMC10627819.

What was measured:
Test in all cases: Bliss interaction score (quartile over a dose matrix) (fitness difference); higher = more antagonism (negative = synergy)
[1] = tested on: B. subtilis 168
Procedure, shortened: (§1)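 The Bliss score is observed minus expected fitness under the product model, reported as quartiles over technical, biological and donor/recipient replicates. Fitness is the OD595 at entry into stationary phase divided by the plate's robust no-drug mean and capped at 1. Single-drug fitness was inferred from combination data.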

[2] = tested on: S. aureus DSM 20231
Procedure, shortened: as §1

[3] = tested on: S. aureus Newman
Procedure, shortened: as §1

[4] = tested on: S. pneumoniae D39V
Procedure, shortened: as §1
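Also: first quartile when negative (synergy) and third quartile when positive (antagonism).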

Row | SMILES | Bliss interaction score [1] | Bliss interaction score [2] | Bliss interaction score [3] | Bliss interaction score [4] | Bliss interaction score ([1]; main component drawn) | Bliss interaction score ([2]; main component drawn) | Bliss interaction score ([3]; main component drawn) | Bliss interaction score ([4]; main component drawn)
1 | N#CC(C#N)=NNc1cccc(Cl)c1 [CCCP] + COc1cc(Cc2cnc(N)nc2N)cc(OC)c1OC [Trimethoprim] | 0.0605 | 0.0495 | -0.0599 | 0.183 |  |  |  | 
2 | CC(=O)Oc1ccccc1C(=O)O [Acetylsalicylicacid] + CO/N=C(\C(=O)N[C@@H]1C(=O)N2C(C(=O)[O-])=C(C[N+]3(C)CCCC3)CS[C@H]12)c1csc(N)n1 [Cefepime] | 0.167 | 0.097 | 0.0506 | 0.118 |  |  |  | 
3 | N#CC(C#N)=NNc1cccc(Cl)c1 [CCCP] + C[C@@H](O)[C@H]1C(=O)N2C(C(=O)O)=C(SCCNC=N)C[C@H]12 [Imipenem] | -0.0769 | 0.0449 | 0.0181 | 0.0923 |  |  |  | 
4 | N#CC(C#N)=NNc1cccc(Cl)c1 [CCCP] + CN[C@H](CC(C)C)C(=O)N[C@H]1C(=O)N[C@@H](CC(N)=O)C(=O)N[C@H]2C(=O)N[C@H]3C(=O)N[C@H](C(=O)N[C@H](C(=O)O)c4cc(O)cc(O)c4-c4cc3ccc4O)[C@H](O[C@H]3C[C@](C)(N)[C@@H](O)[C@H](C)O3)c3ccc(c(Cl)c3)Oc3cc2cc(c3O[C@@H]2O[C@H](CO)[C@@H](O)[C@H](O)[C@H]2O[C@H]2C[C@](C)(NCc3ccc(-c4ccc(Cl)cc4)cc3)[C@@H](O)[C@H](C)O2)Oc2ccc(cc2Cl)[C@H]1O [Oritavancin] | 0.0275 | -0.0305 | 0.0576 | 0.0676 |  |  |  | 
5 | CC(=O)Oc1ccccc1C(=O)O [Acetylsalicylicacid] + CCCCCCCCCC(=O)N[C@@H]1[C@H]([C@@H]([C@H](O[C@H]1OC2=C3C=C4C=C2OC5=C(C=C(C=C5)[C@H]([C@H]6C(=O)N[C@@H](C7=C(C(=CC(=C7)O)OC8[C@H]([C@H]([C@@H]([C@H](O8)CO)O)O)O)C9=C(C=CC(=C9)[C@H](C(=O)N6)NC(=O)[C@@H]4NC(=O)[C@@H]1C2=CC(=CC(=C2)OC2=C(C=CC(=C2)[C@H](C(=O)N[C@H](CC2=CC(=C(O3)C=C2)Cl)C(=O)N1)N)O)O)O)C(=O)O)O[C@H]1[C@@H]([C@H]([C@@H]([C@H](O1)CO)O)O)NC(=O)C)Cl)CO)O)O [Teicoplanin] |  |  |  |  | 0.206 | 0.0851 | -0.0656 | -0.045
6 | CO/N=C(\C(=O)N[C@@H]1C(=O)N2C(C(=O)O)=C(COC(N)=O)CS[C@H]12)c1ccco1 [Cefuroxime] + CO[C@H]1/C=C/O[C@@]2(C)Oc3c(C)c(O)c4c(O)c(c(/C=N/N5CCN(C)CC5)c(O)c4c3C2=O)NC(=O)/C(C)=C\C=C\[C@H](C)[C@H](O)[C@@H](C)[C@@H](O)[C@@H](C)[C@H](OC(C)=O)[C@@H]1C [Rifampicin] | 0.0741 | 0.109 | 0.0557 | 0.102 |  |  |  | 
7 | CO/N=C(\C(=O)N[C@@H]1C(=O)N2C(C(=O)O)=C(COC(C)=O)CS[C@H]12)c1csc(N)n1 [Cefotaxime] + CC[C@H]1OC(=O)[C@H](C)[C@@H](O[C@H]2C[C@@](C)(OC)[C@@H](O)[C@H](C)O2)[C@H](C)[C@@H](O[C@@H]2O[C@H](C)C[C@H](N(C)C)[C@H]2O)[C@](C)(OC)C[C@@H](C)C(=O)[C@H](C)[C@@H](O)[C@]1(C)O [Clarithromycin] | 0.0567 | 0.0514 | -0.0626 | 0.0611 |  |  |  | 
8 | CO/N=C(\C(=O)N[C@@H]1C(=O)N2C(C(=O)O)=C(COC(N)=O)CS[C@H]12)c1ccco1 [Cefuroxime] + CN(C)[C@@H]1C(O)=C(C(N)=O)C(=O)[C@@]2(O)C(O)=C3C(=O)c4c(O)ccc(Cl)c4[C@@](C)(O)[C@H]3C[C@@H]12 [Clortetracycline] | -0.0786 | -0.269 | -0.0677 | 0.112 |  |  |  | 
9 | CC(=O)Oc1ccccc1C(=O)O [Acetylsalicylicacid] + CN(C)[C@@H]1C(O)=C(C(N)=O)C(=O)[C@@]2(O)C(O)=C3C(=O)c4c(O)ccc(Cl)c4[C@@](C)(O)[C@H]3C[C@@H]12 [Clortetracycline] | -0.311 | -0.101 | -0.0574 | -0.0497 |  |  |  | 
10 | N#CC(C#N)=NNc1cccc(Cl)c1 [CCCP] + COc1c(N2C[C@@H]3CCCN[C@@H]3C2)c(F)cc2c(=O)c(C(=O)O)cn(C3CC3)c12 [Moxifloxacin] | 0.0233 | -0.0373 | -0.0686 | 0.0433 |  |  |  | 
11 | CN(C)[C@@H]1C(O)=C(C(N)=O)C(=O)[C@@]2(O)C(O)=C3C(=O)c4c(O)ccc(Cl)c4[C@@](C)(O)[C@H]3C[C@@H]12 [Clortetracycline] + CO[C@@H]1[C@@H](OC(N)=O)[C@@H](O)[C@H](Oc2ccc3c(O)c(NC(=O)c4ccc(O)c(CC=C(C)C)c4)c(=O)oc3c2C)OC1(C)C [Novobiocin] | 0.0909 | 0.104 | 0.0791 | 0.192 |  |  |  | 
12 | CO/N=C(\C(=O)N[C@@H]1C(=O)N2C(C(=O)O)=C(COC(C)=O)CS[C@H]12)c1csc(N)n1 [Cefotaxime] + CC[C@H]1OC(=O)[C@H](C)[C@@H](O[C@H]2C[C@@](C)(OC)[C@@H](O)[C@H](C)O2)[C@H](C)[C@@H](O[C@@H]2O[C@H](C)C[C@H](N(C)C)[C@H]2O)[C@](C)(O)C[C@@H](C)C(=O)[C@H](C)[C@@H](O)[C@]1(C)O [Erythromycin] | 0.0702 | 0.016 | -0.0525 | 0.0515 |  |  |  | 
13 | COc1cccc2c1C(=O)c1c(O)c3c(c(O)c1C2=O)C[C@@](O)(C(=O)CO)C[C@@H]3O[C@H]1C[C@H](N)[C@H](O)[C@H](C)O1 [Doxorubicin] + C[C@H]1c2cccc(O)c2C(=O)C2=C(O)[C@]3(O)C(=O)C(C(N)=O)=C(O)[C@@H](N(C)C)[C@@H]3[C@@H](O)[C@@H]21 [Doxycycline] | 0.0384 | 0.0574 | -0.0163 | -0.144 |  |  |  | 
14 | COc1cccc2c1C(=O)c1c(O)c3c(c(O)c1C2=O)C[C@@](O)(C(=O)CO)C[C@@H]3O[C@H]1C[C@H](N)[C@H](O)[C@H](C)O1 [Doxorubicin] + CC[C@H]1OC(=O)[C@H](C)[C@@H](O[C@H]2C[C@@](C)(OC)[C@@H](O)[C@H](C)O2)[C@H](C)[C@@H](O[C@@H]2O[C@H](C)C[C@H](N(C)C)[C@H]2O)[C@](C)(O)C[C@@H](C)C(=O)[C@H](C)[C@@H](O)[C@]1(C)O [Erythromycin] | 0.0769 | 0.0463 | 0.0828 | 0.0705 |  |  |  | 
15 | N#CC(C#N)=NNc1cccc(Cl)c1 [CCCP] + CCC[C@@H]1C[C@@H](C(=O)N[C@@H]([C@H]2O[C@H](SC)[C@H](O)[C@@H](O)[C@H]2O)[C@H](C)Cl)N(C)C1 [Clindamycin] | -0.0426 | 0.0216 | 0.0938 | -0.138 |  |  |  | 
16 | CN(C)[C@@H]1C(O)=C(C(N)=O)C(=O)[C@@]2(O)C(O)=C3C(=O)c4c(O)ccc(Cl)c4[C@@](C)(O)[C@H]3C[C@@H]12 [Clortetracycline] + CN[C@@H]1[C@H](O[C@H]2[C@H](O[C@H]3[C@H](O)[C@@H](O)[C@H](N=C(N)N)[C@@H](O)[C@@H]3N=C(N)N)O[C@@H](C)[C@]2(O)C=O)O[C@@H](CO)[C@H](O)[C@H]1O [Streptomycin] | 0.156 | -0.0487 | -0.0515 | -0.0408 |  |  |  | 
17 | CC(=O)Oc1ccccc1C(=O)O [Acetylsalicylicacid] + CC(C1CCC(C(O1)OC2C(CC(C(C2O)OC3C(C(C(CO3)(C)O)NC)O)N)N)N)NC [Gentamicin] |  |  |  |  | 0.286 | 0.165 | 0.0614 | 0.0535
18 | CC(=O)Oc1ccccc1C(=O)O [Acetylsalicylicacid] + Clc1ccc(COC(Cn2ccnc2)c2ccc(Cl)cc2Cl)c(Cl)c1 [Miconazole] | 0.0955 | 0.0658 | 0.0722 | -0.0711 |  |  |  | 
19 | N#CC(C#N)=NNc1cccc(Cl)c1 [CCCP] + CC1(C)S[C@@H]2[C@H](NC(=O)Cc3ccccc3)C(=O)N2[C@H]1C(=O)O [PenicillinG] | 0.0568 | 0.0402 | -0.0514 | 0.0767 |  |  |  | 
20 | CN(C)[C@@H]1C(O)=C(C(N)=O)C(=O)[C@@]2(O)C(O)=C3C(=O)c4c(O)ccc(Cl)c4[C@@](C)(O)[C@H]3C[C@@H]12 [Clortetracycline] + CC[C@H]1OC(=O)[C@H](C)[C@@H](O[C@H]2C[C@@](C)(OC)[C@@H](O)[C@H](C)O2)[C@H](C)[C@@H](O[C@@H]2O[C@H](C)C[C@H](N(C)C)[C@H]2O)[C@](C)(O)C[C@@H](C)C(=O)[C@H](C)[C@@H](O)[C@]1(C)O [Erythromycin] | -0.214 | -0.118 | -0.0583 | 0.0677 |  |  |  | 
21 | CN(C)[C@@H]1C(O)=C(C(N)=O)C(=O)[C@@]2(O)C(O)=C3C(=O)c4c(O)ccc(Cl)c4[C@@](C)(O)[C@H]3C[C@@H]12 [Clortetracycline] + CC(=O)O[C@H]1C[C@@]2(C)[C@@H](C[C@@H](O)[C@H]3[C@@]4(C)CC[C@@H](O)[C@@H](C)[C@@H]4CC[C@@]32C)/C1=C(\CCC=C(C)C)C(=O)O [Fusidic acid] | -0.11 | 0.026 | 0.0488 | -0.0508 |  |  |  | 
22 | N#CC(C#N)=NNc1cccc(Cl)c1 [CCCP] + CN(C)[C@@H]1C(O)=C(C(N)=O)C(=O)[C@@]2(O)C(O)=C3C(=O)c4c(O)ccc(Cl)c4[C@@](C)(O)[C@H]3C[C@@H]12 [Clortetracycline] | -0.0685 | 0.0445 | 0.0865 | -0.0306 |  |  |  | 
23 | C[C@@H]1O[C@@H]1P(=O)(O)O [Fosfomycin] + CN[C@H](CC(C)C)C(=O)N[C@H]1C(=O)N[C@@H](CC(N)=O)C(=O)N[C@H]2C(=O)N[C@H]3C(=O)N[C@H](C(=O)N[C@H](C(=O)O)c4cc(O)cc(O)c4-c4cc3ccc4O)[C@H](O[C@H]3C[C@](C)(N)[C@@H](O)[C@H](C)O3)c3ccc(c(Cl)c3)Oc3cc2cc(c3O[C@@H]2O[C@H](CO)[C@@H](O)[C@H](O)[C@H]2O[C@H]2C[C@](C)(NCc3ccc(-c4ccc(Cl)cc4)cc3)[C@@H](O)[C@H](C)O2)Oc2ccc(cc2Cl)[C@H]1O [Oritavancin] | 0.0255 | 0.0683 | 0.0953 | -0.0314 |  |  |  | 
24 | CC(=O)Oc1ccccc1C(=O)O [Acetylsalicylicacid] + CC1=C\[C@@H](O)CC(=O)Cc2nc(co2)C(=O)N2CCC=C2C(=O)O[C@H](C(C)C)[C@H](C)/C=C/C(=O)NC\C=C\1 [Virginiamycin M1] | -0.0602 | -0.0657 | -0.0537 | -0.0556 |  |  |  | 
25 | CC(=O)Oc1ccccc1C(=O)O [Acetylsalicylicacid] + C[C@@H]1O[C@@H]1P(=O)(O)O [Fosfomycin] | -0.291 | 0.0721 | -0.0772 | 0.119 |  |  |  | 
26 | N#CC(C#N)=NNc1cccc(Cl)c1 [CCCP] + COc1cccc2c1C(=O)c1c(O)c3c(c(O)c1C2=O)C[C@@](O)(C(=O)CO)C[C@@H]3O[C@H]1C[C@H](N)[C@H](O)[C@H](C)O1 [Doxorubicin] | -0.0695 | 0.0424 | -0.0546 | -0.0519 |  |  |  | 
27 | CC(=O)Oc1ccccc1C(=O)O [Acetylsalicylicacid] + CN(N=O)C(=O)N[C@@H](C=O)[C@@H](O)[C@H](O)[C@H](O)CO [Streptozotocin] | 0.0788 | -0.0369 | 0.0716 | -0.0923 |  |  |  | 
28 | CN(C)[C@@H]1C(O)=C(C(N)=O)C(=O)[C@@]2(O)C(O)=C3C(=O)c4c(O)ccc(Cl)c4[C@@](C)(O)[C@H]3C[C@@H]12 [Clortetracycline] + CC[C@H]1OC(=O)[C@H](C)C(=O)[C@H](C)[C@@H](O[C@@H]2O[C@H](C)C[C@H](N(C)C)[C@H]2O)[C@](C)(OC)C[C@@H](C)C(=O)[C@H](C)[C@H]2N(CCCCn3cnc(-c4cccnc4)c3)C(=O)O[C@]12C [Telithromycin] | -0.372 | -0.0731 | -0.101 | -0.0824 |  |  |  | 
29 | CN(C)[C@@H]1C(O)=C(C(N)=O)C(=O)[C@@]2(O)C(O)=C3C(=O)c4c(O)ccc(Cl)c4[C@@](C)(O)[C@H]3C[C@@H]12 [Clortetracycline] + C[C@H]1COc2c(N3CCN(C)CC3)c(F)cc3c(=O)c(C(=O)O)cn1c23 [Levofloxacin] | 0.035 | 0.115 | 0.0876 | 0.0525 |  |  |  | 
